For 6 molecules, IC50 results are on record in patent publication US10065945B2, “Isoquinoline derivatives as MGAT2 inhibitors” (Merck Sharp & Dohme Corp., priority 2014, dated 2018).

Sequence of MGAT2 Human (Q3SYC2 whole entry): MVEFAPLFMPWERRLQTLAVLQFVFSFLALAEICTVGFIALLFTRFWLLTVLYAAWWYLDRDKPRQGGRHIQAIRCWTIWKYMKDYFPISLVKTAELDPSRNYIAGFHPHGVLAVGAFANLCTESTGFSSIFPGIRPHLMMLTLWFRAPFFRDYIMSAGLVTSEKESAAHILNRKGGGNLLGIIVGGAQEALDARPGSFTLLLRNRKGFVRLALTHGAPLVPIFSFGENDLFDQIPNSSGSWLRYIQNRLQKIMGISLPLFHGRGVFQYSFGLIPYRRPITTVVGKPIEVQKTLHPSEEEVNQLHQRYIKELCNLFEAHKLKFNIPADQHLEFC

This test concerns the target MGAT2 Human (Homo sapiens (Human), UniProt Q3SYC2). Put plainly: MGAT2 Human IC50. The class given is biochemical.
As a reminder, the IC50 is the midpoint of a concentration-inhibition curve. A higher IC50 goes with weaker potency in that assay. Regarding `CCOC(=O)c1noc(NS(=O)(=O)c2ccc3c(c2)CN([C@H](C)c2cc(F)cc(F)c2)CC3)n1` [Example 51, (R)-ethyl 5-(2-(1-(3,5-difluorophenyl)ethyl)-1,2,3,4-tetrahydroisoquinoline-7-sulfonamido)-1,2,4-oxadiazole-3-carboxylate], it took 14 nM to reach half-maximal inhibition (IC50).

`C[C@H](c1cc(F)cc(F)c1)N1CCc2ccc(S(=O)(=O)Nc3nc(C(N)=O)no3)cc2C1` [Example 52, (R)-5-(2-(1-(3,5-difluorophenyl)ethyl)-1,2,3,4-tetrahydroisoquinoline-7-sulfonamido)-1,2,4-oxadiazole-3-carboxamide]: the IC50 came out at 31 nM.

`CCNC(=O)c1noc(NS(=O)(=O)c2ccc3c(c2)CN([C@H](C)c2cc(F)cc(F)c2)CC3)n1` [Example 53] came in with an IC50 of 7.1 nM.

As for `C[C@H](c1cc(F)cc(F)c1)N1CCc2ccc(S(=O)(=O)Nc3nc(C(=O)NCC(F)(F)F)no3)cc2C1` [Example 54], it took 16 nM to reach half-maximal inhibition (IC50).

`C[C@H](c1cc(F)cc(F)c1)N1CCc2ccc(S(=O)(=O)Nc3nc(C(=O)N4CCC4)no3)cc2C1` [Example 55] returned an IC50 of 3.7 nM.

Take `C[C@H](c1cc(F)cc(F)c1)N1CCc2ccc(S(=O)(=O)Nc3nc(C(=O)N(C)C)no3)cc2C1` [Example 56]: inhibition was half-maximal at 5.7 nM (IC50).
